{"source": "patent EP0101441B1", "about": "“ANTI-VIRAL COMPOSITIONS” (SYNTEX (U.S.A.) INC., priority 1982, dated 1983)", "key": {"HSV-1-PATTON [1]": {"tested_on": "HSV-1-PATTON", "experiment": "Viral plaque titration in human fetal fibroblasts (HFF)", "assay_type": "cell-based, Herpes simplex virus", "details": "Example 1, drug µg/ml: G* 1.2, BVDU 0.11, ACG 2.0, PAA 250, same in combinations; for VT (virus titre): HFF cells, no-drug control VT 147; for FTR (fold titre reduction): ratio of control virus titre to that of the test", "description": "(§1) Human fetal fibroblasts (HFF) derived from fetal tissues were used in this study. Cells were grown and maintained in Basal Medium Eagle (BME) supplemented with 0.112% sodium bicarbonate, 2 mML- glutamine, 2 mg% Neomycin and 20% (vol/vol) calf serum.\n(§2) A viral plaque titration method (Roizman and Roane, 1961) was used to determine the titer of the HSV strain. Tissue culture dishes (35 by 10 mm, Corning) were seeded with cells and used for assays when they were approximately 75% monolayer. Volumes (0.2 ml) of logarithmic dilutions of the virus strain were inoculated onto each of two tissue culture dishes and adsorbed for 1 hr with intermittent shaking, the inoculum was removed and 2 ml of 20% BME containing 0.5% human immune serum globulin was added. After a 48 h incubation period at 36°C in a 5% C02 atmosphere, the overlay m'edium was removed, and the cell sheets were stained with a 0.05% aqueous crystal violet solution. The plaque numbers were counted with the aid of a Nikon profile projector which magnified the dishes 10x. Duplicate results were averaged, and the number of plaque-forming units (PFU) was calculated. The virus titre is thus expressed as a number of plaque forming units to be seen after growth under these conditions.\n(§3) In order to make comparisons between the activities of the various drugs and combinations, experiments were conducted by plaque titration to determine for each drug its viral ED-50 (i.e. the concentration thereof which inhibits HSV plaque formation by 50% in the HFF cells, as compared with cell cultures in the absence of the drug). For this purpose, tissue culture dishes (35 by 10 mm) with HFF cell monolayers at 75% confluence were inoculated with approximately 50 plaque-forming units of virus per 0.2 ml, and the virus was allowed to adsorb for 1 hr with intermittent shaking. After removal of the inoculum, 2 ml of 20% BME with 0.5% immune globulin and threefold dilutions of the appropriate drug were added to duplicate dishes. One set of dishes received no drug and was later used for the \"no-drug control\". After a 48 h incubation period at 36°C in a 5% C02 atmosphere, the overlay medium was removed, the cells were stained as described above, and plaques were counted. After averaging the counts of duplicate plates, the fraction of plaques emerging in the presence of each drug dilution was calculated as a percent of the control. Each drug titration was plotted on semilogarithmic graph paper, with the number of plaques per dish as the vertical axis and the drug concentration as the horizontal axis. The viral ED50 was calculated as that amount of drug per ml of overlay medium that inhibited plaque numbers by 50%, compared to a control (no drug), and this was read off the graphic plot of the data.\n(§4) Three combinations of the drugs were then tested for activity by viral plaque titration, at concentrations which were multiples of the ED50 of the individual drugs. When G^*, BVDU or ACG was present, a concentration ten times that of its ED50 was used in the combination. This was intended to ensure a concentration sufficiently high to limit the numbers of partially drug-resistant virus plaques to a small fraction, in respect of each drug of the combination. In respect of PAA, a concentration of five times the ED50 was used, to avoid cell toxicity problems. The drugs were individually plaque-titrated at the same concentrations, for comparison purposes.\n(§5) The results are given in the first Table headed \"HSV-1-PATTON\". The column headed \"VT\" gives the virus titre, expressed in plaque-forming units (PFU) per ml, x10^5; of course, the lower the figure, the greater the inhibitory, anti-viral effect of the tested drug (D). The column headed \"FTR\" gives the fold titre reduction which is the ratio of virus titre for the control, i.e. no drug, to that of the given test. […]"}, "HSV-2-EL3": {"tested_on": "HSV-2-EL3", "experiment": "Viral plaque titration in human fetal fibroblasts (HFF)", "assay_type": "cell-based, Herpes simplex virus", "details": "Example 3, drug µg/ml: G* 2.0, PAA 82, combination 2.0+82; for VT (virus titre): HFF cells, no-drug control VT 77; for FTR (fold titre reduction): ratio of control virus titre to that of the test"}, "HSV-2-EL6": {"tested_on": "HSV-2-EL6", "experiment": "Viral plaque titration in human fetal fibroblasts (HFF)", "assay_type": "cell-based, Herpes simplex virus", "details": "for VT (virus titre): HFF cells; for FTR (fold titre reduction): ratio of control virus titre to that of the test"}, "HSV-2-EL4": {"tested_on": "HSV-2-EL4", "experiment": "Viral plaque titration in human fetal fibroblasts (HFF)", "assay_type": "cell-based, Herpes simplex virus", "details": "for VT (virus titre): HFF cells, no-drug control VT 750; for FTR (fold titre reduction): ratio of control virus titre to that of the test"}, "HSV-2-EL1": {"tested_on": "HSV-2-EL1", "experiment": "Viral plaque titration in human fetal fibroblasts (HFF)", "assay_type": "cell-based, Herpes simplex virus", "details": "Example 3, drug µg/ml: G* 2.0, PAA 76, combination 2.0+76; for VT (virus titre): HFF cells, no-drug control VT 170; for FTR (fold titre reduction): ratio of control virus titre to that of the test"}, "HSV-1-227": {"tested_on": "HSV-1-227", "experiment": "Viral plaque titration in human fetal fibroblasts (HFF)", "assay_type": "cell-based, Herpes simplex virus", "details": "Example 3, drug µg/ml: G* 2.0, PAA 80, combination 2.0+80; for VT (virus titre): HFF cells, no-drug control VT 28; for FTR (fold titre reduction): ratio of control virus titre to that of the test", "description": "as §1, §2, §3, §4, §5"}, "HSV-1-EL11": {"tested_on": "HSV-1-EL11", "experiment": "Viral plaque titration in human fetal fibroblasts (HFF)", "assay_type": "cell-based, Herpes simplex virus", "details": "Example 3, drug µg/ml: G* 0.4, PAA 25, combination 0.4+25; for VT (virus titre): HFF cells, no-drug control VT 8.0; for FTR (fold titre reduction): ratio of control virus titre to that of the test"}, "HSV-1-PATTON [2]": {"tested_on": "HSV-1-PATTON", "experiment": "Viral plaque titration in human fetal fibroblasts (HFF)", "assay_type": "cell-based, Herpes simplex virus", "details": "Example 2, drug µg/ml: G* 0.7, PFA 80, combination 0.7+80; for VT (virus titre): HFF cells, no-drug control VT 3400; for FTR (fold titre reduction): ratio of control virus titre to that of the test"}, "[3]": {"details": "cited from earlier work"}, "[4]": {"details": "Example 2, no-drug control VT 150, drug µg/ml: G* 0.7, PFA 80, combination 0.7+80"}, "[5]": {"details": "Example 2, drug µg/ml: G* 0.7, PFA 80, combination 0.7+80"}, "[6]": {"details": "Example 3, no-drug control VT 180, drug µg/ml: G* 0.6, PAA 90, combination 0.6+90"}, "[7]": {"details": "Example 3, drug µg/ml: G* 0.6, PAA 90, combination 0.6+90"}, "[8]": {"details": "Example 2, drug µg/ml: G* 3.0, PFA 80, combination 3.0+80"}, "[9]": {"details": "Example 3, drug µg/ml: G* 2.0, PAA 90, combination 2.0+90"}}}
{"smiles": "Nc1nc2c(ncn2COCCO)c(=O)[nH]1", "note": "[ACG, 9 - [2 - hydroxyethoxymethyl]guanine]", "values": [{"measurement": "VT (virus titre)", "setting": "HSV-1-PATTON [1]", "result": "4.7 PFU per ml, x10^5"}, {"measurement": "FTR (fold titre reduction)", "setting": "HSV-1-PATTON [1]", "result": 31}]}
{"smiles": "O=c1[nH]c(=O)n([C@H]2C[C@H](O)[C@@H](CO)O2)cc1/C=C/Br", "note": "[BVDU, bromovinyl-deoxyuridine]", "values": [{"measurement": "VT (virus titre)", "setting": "HSV-1-PATTON [1]", "result": "2.1 PFU per ml, x10^5"}, {"measurement": "FTR (fold titre reduction)", "setting": "HSV-1-PATTON [1]", "result": 70}]}
{"smiles": "Nc1nc2c(ncn2COC(CO)CO)c(=O)[nH]1", "note": "[G*, 9 - [[2 - hydroxy - 1 - (hydroxymethyl)ethoxy]methyl]guanine]", "values": [{"measurement": "VT (virus titre)", "setting": "HSV-2-EL3", "result": "10 PFU per ml, x10^5"}, {"measurement": "FTR (fold titre reduction)", "setting": "HSV-2-EL3", "result": 7.7}, {"measurement": "VT (virus titre)", "setting": "HSV-2-EL6; [4]", "result": "40 PFU per ml, x10^5"}, {"measurement": "FTR (fold titre reduction)", "setting": "HSV-2-EL6; [5]", "result": 3.8}, {"measurement": "VT (virus titre)", "setting": "HSV-2-EL6; [6]", "result": "0.90 PFU per ml, x10^5"}, {"measurement": "FTR (fold titre reduction)", "setting": "HSV-2-EL6; [7]", "result": 200}, {"measurement": "VT (virus titre)", "setting": "HSV-2-EL4; [8]", "result": "21 PFU per ml, x10^5"}, {"measurement": "FTR (fold titre reduction)", "setting": "HSV-2-EL4; [8]", "result": 36}, {"measurement": "VT (virus titre)", "setting": "HSV-2-EL4; [9]", "result": "5.9 PFU per ml, x10^5"}, {"measurement": "FTR (fold titre reduction)", "setting": "HSV-2-EL4; [9]", "result": 130}, {"measurement": "VT (virus titre)", "setting": "HSV-2-EL1", "result": "8.9 PFU per ml, x10^5"}, {"measurement": "FTR (fold titre reduction)", "setting": "HSV-2-EL1", "result": 19}, {"measurement": "VT (virus titre)", "setting": "HSV-1-227", "result": "0.25 PFU per ml, x10^5"}, {"measurement": "FTR (fold titre reduction)", "setting": "HSV-1-227", "result": 110}, {"measurement": "VT (virus titre)", "setting": "HSV-1-PATTON [1]", "result": "1.1 PFU per ml, x10^5"}, {"measurement": "FTR (fold titre reduction)", "setting": "HSV-1-PATTON [1]", "result": 130}, {"measurement": "VT (virus titre)", "setting": "HSV-1-EL11", "result": "0.37 PFU per ml, x10^5"}, {"measurement": "FTR (fold titre reduction)", "setting": "HSV-1-EL11", "result": 22}, {"measurement": "VT (virus titre)", "setting": "HSV-1-PATTON [2]", "result": "140 PFU per ml, x10^5"}, {"measurement": "FTR (fold titre reduction)", "setting": "HSV-1-PATTON [2]", "result": 24}]}
{"smiles": "O=C(O)CP(=O)(O)O", "note": "[PAA, phosphonoacetic acid]", "values": [{"measurement": "VT (virus titre)", "setting": "HSV-2-EL3", "result": "0.36 PFU per ml, x10^5"}, {"measurement": "FTR (fold titre reduction)", "setting": "HSV-2-EL3", "result": 210}, {"measurement": "VT (virus titre)", "setting": "HSV-2-EL6; [6]", "result": "31.0 PFU per ml, x10^5"}, {"measurement": "FTR (fold titre reduction)", "setting": "HSV-2-EL6; [7]", "result": 5.8}, {"measurement": "VT (virus titre)", "setting": "HSV-2-EL4; [9]", "result": "0.10 PFU per ml, x10^5"}, {"measurement": "FTR (fold titre reduction)", "setting": "HSV-2-EL4; [9]", "result": "7,500"}, {"measurement": "VT (virus titre)", "setting": "HSV-2-EL1", "result": "0.34 PFU per ml, x10^5"}, {"measurement": "FTR (fold titre reduction)", "setting": "HSV-2-EL1", "result": 500}, {"measurement": "drug concentrations in topical formulation reported as skin irritant", "setting": "[3]", "result": "> 100000", "unit": "µM"}, {"measurement": "VT (virus titre)", "setting": "HSV-1-227", "result": "1.1 PFU per ml, x10^5"}, {"measurement": "FTR (fold titre reduction)", "setting": "HSV-1-227", "result": 26}, {"measurement": "VT (virus titre)", "setting": "HSV-1-PATTON [1]", "result": "3.2 PFU per ml, x10^5"}, {"measurement": "FTR (fold titre reduction)", "setting": "HSV-1-PATTON [1]", "result": 50}, {"measurement": "VT (virus titre)", "setting": "HSV-1-EL11", "result": "2.8 PFU per ml, x10^5"}, {"measurement": "FTR (fold titre reduction)", "setting": "HSV-1-EL11", "result": 2.9}]}
{"smiles": "O=C(O)P(=O)(O)O", "note": "[PFA, phosphonoformic acid]", "values": [{"measurement": "VT (virus titre)", "setting": "HSV-2-EL6; [4]", "result": "48 PFU per ml, x10^5"}, {"measurement": "FTR (fold titre reduction)", "setting": "HSV-2-EL6; [5]", "result": 3.1}, {"measurement": "VT (virus titre)", "setting": "HSV-2-EL4; [8]", "result": "0.28 PFU per ml, x10^5"}, {"measurement": "FTR (fold titre reduction)", "setting": "HSV-2-EL4; [8]", "result": "2,700"}, {"measurement": "skin harm of topical formulation", "setting": "[3]; drug concentrations in excess of 100 mM", "result": "do not appear harmful"}, {"measurement": "VT (virus titre)", "setting": "HSV-1-PATTON [2]", "result": "750 PFU per ml, x10^5"}, {"measurement": "FTR (fold titre reduction)", "setting": "HSV-1-PATTON [2]", "result": 4.5}]}
